# Patent publication US7897637B2, “Methods of using flavonoids to enhance memory” (The Salk Institute for Biological Studies, priority 2006, dated 2011)
# Like-named read-outs stand apart in the source and are kept apart here.
# Tests used:
# PC12 cells [1] = settings: cited from earlier work; for EC50: PC12 cells, read-out: EC50 for differentiation; for EC50 / differentiation of the cells induced at best: Sagara et al. 2004
# [2] = Trolox Equivalent Activity Concentration (ABTS decolorization assay); settings: Trolox as reference
# Experimental: To determine if the protection seen with the different fisetin derivatives correlated with their antioxidant properties, their Trolox Equivalent Activity Concentration (TEAC) values were determined. In this procedure, a compound is compared to Trolox, a water-soluble vitamin E analog, for its ability to reduce the radical cation of ABTS in aqueous solution. As reported previously, fisetin has a TEAC value of ˜3 (Table II). None of the derivatives had TEAC values in this range despite, in some cases, showing better protection against oxidative stress-induced death. Thus, there was no correlation with antioxidant activity as defined by TEAC value and protection in this system.
# TEAC values for the flavonoids were determined according to (Re et al. Free Rad. Biol. Med., 26:1231-7, 1999) but modified for a plate reader. Briefly, 250 μl of 2,2′-azinobis(3-ethylbenzothiazoline 6-sulfonate)(ABTS) treated overnight with potassium persulfate and diluted to an OD of ˜0.7 at 734 nm was added to 2.5 μl of a flavonoid solution in ethanol. The change in absorbance due to the reduction of the ABTS radical cation was measured at 734 nm for 4 minutes. To calculate the TEAC, the gradient of the plot of the percentage inhibition of absorbance vs. concentration for the flavonoid in question is divided by the gradient of the plot for Trolox.
# HT22 cells = assay: Protection of HT22 cells from oxidative glutamate toxicity (MTT assay); format: cell-based, mouse; settings: for EC50 / Emax: Mus musculus, 5 mM glutamate, MTT assay; for EC50: HT-22, 24 h, read-out: EC50 (μM), protection from oxidative-stress induced death; for EC50 / Emax / effect of higher levels of BSO on protection: 24 hours; for Emax: HT-22, read-out: Maximal Efficacy, protection from oxidative-stress induced death; for effect of higher levels of BSO on protection: 5 mM glutamate + 1 mM BSO, MTT
# Excerpt: Fisetin is effective at protecting nerve cells from oxidative stress-induced death (Ishige et al., Free Radic. Biol. Med., 30:433-446, 2001). This Example illustrates the structure-activity relationship between fisetin derivatives and neuroprotection in a model of oxidative glutamate toxicity using mouse HT22 cells. This pathway of programmed cell death is initiated by the addition of glutamate to the extracellular medium. Glutamate inhibits the uptake of cystine which is required for glutathione (GSH) biosynthesis, resulting in the depletion of GSH in neurons (for review see Tan et al., Curr. Top. Med. Chem., 1:497-506, 2001). Subsequently, this decrease in cellular GSH results in the production of reactive oxygen species (ROS) by mitochondria. The ROS accumulation then causes Ca^+2 influx from the extracellular medium which leads to cell death.
# HT22 cells were untreated (Ct) or treated with 10 μM fisetin, 25 μM 3,3′-DHF, 25 μM 3,4′-DHF, 2.5 μM 3′,4′-DHF, 2.5 μM 3,3′,4′-THF 25 μM 3,7,3′-THF, 25 μM 3,7,4′-THF or 10 μM 7,3′,4′-THF in the presence of 5 mM glutamate±50 μM PD98059. Twenty four (24) hours later cell survival was measured by the MTT assay.
# HT22 cells were untreated (Ct) or treated with 10 μM fisetin, 25 μM 3,3′-DHF. […] Protection by all of the other flavonoids was unaffected by BSO.
# Cell viability was determined by a modified version of the 3-(4,5-dimethylthiazol-2-yl)-2,5-diphenyl tetrazolium bromide (MTT) assay based on the standard procedure (Hansen et al., J. Immunol. Meth., 119:203-10, 1989). Briefly, cells were seeded onto 96-well microtiter plates at a density of 5×10^3 cells per well. The next day, the medium was replaced with DMEM supplemented with 7.5% DFCS and the cells were treated with the different flavonoids alone or in the presence of 5 mM glutamate. Twenty four hours later, the medium in each well was aspirated and replaced with fresh medium containing 2.5 μg/ml MTT. After 4 hours of incubation at 37° C., cells were solubilized with 100 μl of a solution containing 50% dimethylformamide and 20% SDS (pH 4.7). The absorbance at 570 nm was measured on the following day with a microplate reader (Molecular Devices). Results obtained from the MTT assay correlated directly with the extent of cell death as confirmed visually. Controls employing wells without cells were used to determine the effects of the agents upon the assay chemistry.
# PC12 cells [3] = assay: PC12 cell differentiation assay (neurite outgrowth); format: cell-based; settings: for EC50 / Emax: Rattus norvegicus, PC-12, PC12 cells in N2 medium, 24 hours, neurites scored; for EC50: read-out: EC50 (μM), induction of PC12 cell differentiation; for Emax: read-out: Maximal Efficacy, induction of PC12 cell differentiation
# Experimental: Four trihydroxyflavones (THF) and three dihydroxyflavones (DHF) which lack one or two, respectively, of the hydroxyl groups found in fisetin were tested for their ability to induce the differentiation of PC12 cells. Differentiation was assessed by scoring neurite outgrowth (Sagara et al., J. Neurochem., 90:1144-1155, 2004). […]
# PC12 cells in N2 medium were treated with flavonoids for 24 hours at which time the cells were scored for the presence of neurites. PC12 cells produce neurites much more rapidly when treated in N2 medium than when treated in regular growth medium (Kimura et al., J. Cell Biol., 116:777-83, 1992). For each treatment, 100 cells in each of three separate fields were counted. Cells were scored positive if one or more neurites>1 cell body diameter in length were observed.
# Nrf2 and HO-1 = Nrf2 and HO-1 induction in HT22 cells (immunoblotting); format: cell-based, mouse; settings: for increasing the levels of Nrf2 and inducing HO-1 synthesis: HT22 cells, 10-25 μM, 4 hours (Nrf2), 24 hours (HO-1)
# Experimental: Since the ability to activate the ARE could be important for some of the beneficial effects of flavonoids such as fisetin, it was determined which, if any, of the fisetin derivatives could activate the ARE and induce the synthesis of downstream proteins such as HO-1. HT22 cells were untreated (control) or treated with 10 μM fisetin, 25 μM 3,3′DHF, 25 μM 3,4′-DHF, 10 μM 3′,4′-DHF, 10 μM 3,3′,4′-THF, 25 μM 3,7,3′-THF, 25 μM 3,7,4′-THF or 10 μM 7,3′,4′-THF for 4 hours. Nuclei were prepared and equal amounts of protein were analyzed by SDS-PAGE and immunoblotting with anti-Nrf-2 antibodies.
# ERK activation is implicated in the induction of Nrf2 by certain stimuli in some cell types. To determine if ERK activation plays a role in the induction of Nrf2 and HO-1 by fisetin and its derivatives, cells were pretreated with PD98059 prior to the addition of the flavonoids to the cells. HT22 cells then were untreated (control) or treated for 24 hours with 10 μM fisetin, 25 μM 3,3′-DHF, 25 μM 3,4′-DHF, 10 μM 3′,4′-DHF, 10 μM 3,3′,4′-THF, 25 μM 3,7,3′-THF, 25 μM 3,7,4′-THF or 10 μM 7,3′,4′-THF. Cell lysates were prepared and equal amounts of cellular protein were analyzed by SDS-PAGE and immunoblotting with anti-HO-1 antibodies. Immunoblotting with anti-actin was used as a loading control.
# For immunoblotting of HO-1, untreated and flavonoid-treated HT22 cells from the same density cultures as used for the cell death assays were washed twice in cold phosphate-buffered saline (PBS) then scraped into lysis buffer containing 50 mM HEPES, pH 7.4, 150 mM NaCl, 50 mM NaF, 1.5 mM MgC2, 1 mM EGTA, 10% glycerol, 1% Triton X-100, 10 mM sodium pyrophosphate, 1 mM Na3VO4, 1 mM phenylmethylsulfonyl fluoride (PMSF), 15 μg/ml aprotinin, 1 μg/ml pepstatin, and 5 μg/ml leupeptin. Lysates were incubated at 4° C. for 30 minutes, and then cleared by centrifugation at 14,000 rpm for 10 minutes. For immunoblotting of Nr12, nuclear extracts were prepared as described (Schreiber et al., Nuc. Acids Res., 17:6419, 1989) from untreated and flavonoid-treated cells. […] Protein concentrations were determined using the BCA protein assay (Pierce). Equal amounts of protein were solubilized in 2.5×SDS sample buffer, separated on 10% SDS polyacrylamide gels and transferred to nitrocellulose. The primary antibodies used were: anti-Nrf2 (#SC13032; 1/1000) from Santa Cruz Biotechnology (Santa Cruz, Calif.) and anti-HO-1 (#SPA-896; 1/5000) from Stressgen (Victoria, BC Canada).
# CREB = CREB phosphorylation in hippocampal slices (immunoblotting, densitometry); format: cell-based, rat; settings: inhibitor alone (50 μM PD98059 or 10 μM U0126, 30 minutes)
# Experimental: (§1) Western blots panels A and B) of hippocampal slices treated with (A) 1 μM fisetin or (B) pretreated for 30 minutes with either 50 μM PD98059 (PD) or 10 μM U0126 (U) before the addition of 1 μM fisetin for 5 minutes, which blots were probed with the indicated antibodies.
# (§2) Hippocampal slices in artificial cerebral spinal fluid (ACSF) were treated with either 1 μM fisetin for 5-20 minutes or pretreated for 30 minutes with either 50 μM PD98059 (PD) or 10 μM U0126 (J) before the addition of 1 μM fisetin for 5 minutes. Equal amounts of protein were analyzed by SDS-PAGE and immunoblotting with antibodies to phospho-ERK and phospho-CRFB along with antibodies to the unphosphorylated forms of the proteins. The average phosphoprotein signal from the blots was quantified by densitometry and normalized to total protein was plotted±S.D.
# ERK2 (p42) = ERK2 (p42) phosphorylation in hippocampal slices (immunoblotting, densitometry); format: cell-based, rat; settings: inhibitor alone (50 μM PD98059 or 10 μM U0126, 30 minutes)
# Experimental: as §1, §2
# ERK1 (p44) = ERK1 (p44) phosphorylation in hippocampal slices (immunoblotting, densitometry); format: cell-based, rat; settings: inhibitor alone (50 μM PD98059 or 10 μM U0126, 30 minutes)
# Experimental: as §1, §2
# GSH = assay: Total cellular GSH levels in HT22 cells; format: cell-based, mouse; settings: 8 hours
# Experimental: The effects of fisetin derivatives on cellular GSH levels was then determined. HT22 cells were untreated (Ct) or treated with 10 μM fisetin, 25 μM 3,3′-DHF, 25 μM 3,4′-DHF, 2.5 μM 3′,4′-DHF, 2.5 μM 3,3′,4′-THF, 25 μM 3,7,3′-THF, 25 μM 3,7,4′-THF or 10 μM 7,3′,4′-THF alone or in the presence of 5 mM glutamate. After 8 hours cellular levels of total GSH were determined as described in Example 4. The GSH level of the control sample (31.5±10 nmoles/mg protein) was taken as 100%.
# Total intracellular GSH/GSSG was determined using whole cell lysates from untreated, glutamate treated, flavonoid treated and glutamate plus flavonoid treated cells as described (Maher and Hanneken, Invest. Opthalmol. Vis. Sci., 46:749-57, 2005, herein incorporated by reference as to the method) and normalized to total cellular protein.
Structure (SMILES),TEAC [2],EC50 (HT22 cells; HT22 cells) [µM],Emax (HT22 cells; HT22 cells) [%],EC50 (PC12 cells [3]) [µM],Emax (PC12 cells [3]) [%],EC50 (PC12 cells [1]) [µM],differentiation of the cells induced at best (PC12 cells [1]) [%],also measured
O=c1c(O)c(-c2cc(O)c(O)c(O)c2)oc2cc(O)cc(O)c12 [myricetin],,,,,,,,differentiation promoting activity (PC12 cells [1]; earlier flavonoid comparison): completely ineffective
"O=c1c(O)c(-c2cccc(O)c2)oc2ccccc12 [3,3′-DHF, 3,3′-dihydroxyflavone]",1.01 ± 0.01,12,> 80,10,40 to 50,,,
"COc1cc(-c2oc3cc(O)cc(O)c3c(=O)c2O)ccc1O [isorhamnetin, 3′-methoxy-3,5,7,4′-tetrahydroxyflavone]",,,,,,10,50,
"O=c1c(O)c(-c2ccc(O)cc2)oc2cc(O)ccc12 [3,7,4′-THF, 3,4′,7-trihydroxyflavone]",1.01 ± 0.10,12.5,> 90,10,70 to 80,,,increasing the levels of Nrf2 and inducing HO-1 synthesis (Nrf2 and HO-1): fairly effective; effect of inhibition of ERK activation (PD98059) on Nrf2 and HO-1 induction (Nrf2 and HO-1; PD98059 pretreatment): reduced
"N#CC(=C(/N)Sc1ccccc1N)/C(C#N)=C(\N)Sc1ccccc1N [U0126, reference compound]",,,,,,,,CREB phosphoprotein signal normalized to total protein (CREB): 0.71±0.31; p42 phosphoprotein signal normalized to total protein (ERK2 (p42)): 0.30±0.05; p44 phosphoprotein signal normalized to total protein (ERK1 (p44)): 0.13±0.06
"O=c1cc(-c2ccc(O)c(O)c2)oc2cc(O)ccc12 [7,3′,4′-THF, 3′,4′,7-trihydroxyflavone]",0.89 ± 0.04,5,> 80,10,50 to 60,,,"GSH levels in the presence of oxidative stress (GSH; 5 mM glutamate): could not maintain GSH levels; basal levels of GSH (GSH; flavonoid alone): raised the basal levels of GSH; effect of higher levels of BSO on protection (HT22 cells): reduced protection; protection from oxidative stress-induced death (HT22 cells; HT22 cells, glutamate): equal to or more effective than fisetin"
"O=c1c(O)c(-c2ccc(O)cc2)oc2ccccc12 [3,4′-DHF, 3,4′-dihydroxyflavone]",0.62 ± 0.06,10,> 70,20,50 to 60,,,increasing the levels of Nrf2 and inducing HO-1 synthesis (Nrf2 and HO-1): fairly effective; effect of higher levels of BSO on protection (HT22 cells): reduced protection; ability to induce differentiation (PC12 cells [3]; PC12 cells): slightly less efficacious and potent than fisetin
"O=c1cc(-c2ccc(O)c(O)c2)oc2cc(O)cc(O)c12 [Iuteolin, 5,7,3′,4′-tetrahydroxyflavone]",,,,,,10,50,
"O=c1c(O)c(-c2ccc(O)c(O)c2)oc2cc(O)cc(O)c12 [quercetin, 3,5,7,3′,4′-pentahydroxyflavone]",,,,,,10,50,
"O=c1c(O)c(-c2cccc(O)c2)oc2cc(O)ccc12 [3,7,3′-THF, 3,3′,7-trihydroxyflavone]",1.55 ± 0.34,17,> 90,15,40 to 50,,,
